Reference: patent US5491172A, “N-acyl sulfamic acid esters (or thioesters), N-acyl sulfonamides, and N-sulfonyl carbamic acid esters (or thioesters) as hypercholesterolemic agents” (Warner-Lambert Company, priority 1994, dated 1996)
Structures can show the parent of a compound that is named as a salt.

Legend:
[1] = in vivo screen APCC: blood cholesterol in rats fed overnight a high fat, high cholesterol (PCC) diet; details: male Sprague-Dawley rats, dosed at 4 PM, PCC diet with 0.5% cholic acid overnight, blood sampled 8 AM, dose not given
Excerpt: In one in vivo screen designated APCC, male Sprague-Dawley rats (200 to 225 g) were randomly divided into treatment groups and dosed at 4 PM with either vehicle (CMC/Tween) or suspensions of compounds in vehicle. The normal chow diet was then replaced with a high fat, high cholesterol diet (designated PCC) containing 0.5% cholic acid. The rats consumed this diet ad libitum during the night and were sacrificed at 8 AM to obtain blood samples for cholesterol analysis using standard procedures. Statistical differences between mean cholesterol values for the same vehicle were determined using analysis of variance followed by Fisher's least significant test.

[2] = molecular target: acyl-CoA:cholesterol acyltransferase (ACAT); assay: in vitro ACAT inhibition (LAI): radiolabeled cholesterol oleate formed from radiolabeled oleic acid in rat liver microsomes; assay type: biochemical; details: concentration required to inhibit enzyme activity by 50%
Experimental: The ability of representative compounds of the present invention to inhibit ACAT was measured using an in vitro test more fully described in Field FJ, Salone RG, Biochemica et Biophysica, 1982;712:557-570. The test assesses the ability of a test compound to inhibit the acylation of cholesterol by oleic acid by measuring the amount of radiolabeled cholesterol oleate formed from radiolabeled oleic acid in a tissue preparation containing rat liver microsomes.

| IC50 [2] | IC50 ([2]; sodium salt) | Structure (SMILES) | % Change (mg/dl) in cholesterol [1] | % Change (mg/dl) in cholesterol ([1]; sodium salt) |
| --- | --- | --- | --- | --- |
| 22 µM | – | CC(C)c1cccc(C(C)C)c1OS(=O)(=O)NC(=O)C1c2ccccc2Oc2ccccc21 [Example 36, sulfamic acid[(9H-xanthen-9-yl)carbonyl]-2,6-bis(1-methylethyl)phenyl ester] | -6% | – |
| 16 µM | – | CC(C)c1cccc(C(C)C)c1OS(=O)(=O)NC(=O)C1c2ccccc2-c2ccccc21 [Example 37, sulfamic acid[(9H-fluoren-9yl)carbonyl]-2,6-bis(1-methylethyl)phenyl ester] | -50% | – |
| 31 µM | – | CC(C)c1cccc(C(C)C)c1OS(=O)(=O)NC(=O)CCc1ccccc1 [Example 38, sulfamic acid(1-oxo-3-phenylpropyl)-2,6-bis(1-methylethyl)phenyl ester] | -16% | – |
| 32 µM | – | CC(C)c1cccc(C(C)C)c1OS(=O)(=O)NC(=O)C(Br)c1ccccc1 (centres unmarked) [Example 39, sulfamic acid[bromo(phenyl)acetyl]-2,6l-bis(1-methylethyl)phenyl ester] | +5% | – |
| 32 µM | – | CC(C)c1cc(C(C)C)c(C=CC(=O)NS(=O)(=O)Oc2c(C(C)C)cccc2C(C)C)c(C(C)C)c1 [Example 40, sulfamic acid[1-oxo-3-[2,4,6-tris-(1-methylethyl)phenyl]-2-propenyl]-2,6-bis-(1-methylethyl)phenyl ester] | -54% | – |
| 28 µM | – | CC(C)c1cc(C(C)C)c(CCC(=O)NS(=O)(=O)Oc2c(C(C)C)cccc2C(C)C)c(C(C)C)c1 [Example 41, sulfamic acid[1-oxo-3-[2,4,6-tris(1-methylethyl)phenyl]propyl]-2,6-bis(1-methylethyl)phenyl ester] | -73% | – |
| 7 µM | – | CC(=O)OC(C(=O)NS(=O)(=O)Oc1c(C(C)C)cccc1C(C)C)c1c(C(C)C)cc(C(C)C)cc1C(C)C (centres unmarked) [Example 42, sulfamic acid[(acetyloxy)[2,4,6-tris(1-methylethyl)phenyl]acetyl]-2,6-bis(1-methylethyl)phenyl ester] | -25% | – |
| 31 µM | – | CC(C)c1cc(C(C)C)c(C(O)C(=O)NS(=O)(=O)Oc2c(C(C)C)cccc2C(C)C)c(C(C)C)c1 (centres unmarked) [Example 43, sulfamic acid[hydroxy[2,4,6-tris(1-methylethyl)phenyl]acetyl]-2,6-bis(1-methylethyl)phenyl ester] | -45% | – |
| 9.4 µM | – | CC(C)c1cc(C(C)C)c(C(F)C(=O)NS(=O)(=O)Oc2c(C(C)C)cccc2C(C)C)c(C(C)C)c1 (centres unmarked) [Example 44, sulfamic acid[fluoro[2,4,6-tris(1-methylethyl)phenyl]acetyl]-2,6-bis(1-methylethyl)phenyl ester] | -74% | – |
| – | 5.6 µM | CCC(C)C(C(=O)NS(=O)(=O)Oc1c(C(C)C)cccc1C(C)C)c1ccccc1 (centres unmarked) [Example 45, sulfamic acid(3-methyl-1-oxo-2-phenylpentyl)-2,6-bis(1-methylethyl)phenyl ester sodium salt] | – | -63% |
| 34 µM | – | CC(C)c1cc(C(C)C)c(OCC(=O)NS(=O)(=O)Oc2c(C(C)C)cccc2C(C)C)c(C(C)C)c1 [Example 46, sulfamic acid[[2,4,6-tris(1-methylethyl)phenoxy]acetyl]-2,6-bis(1-methylethyl)phenyl ester] | -57% | – |
| 38 µM | – | CC(C)c1cccc(C(C)C)c1OCC(=O)NS(=O)(=O)Oc1c(C(C)C)cccc1C(C)C [Example 47, sulfamic acid[[2,6-bis(1-methylethyl)phenoxy]acetyl]-2,6-bis(1-methylethyl)phenyl ester] | -46% | – |
| 8.3 µM | – | CC(C)c1cc(C(C)C)c(CC(=O)NS(=O)(=O)Oc2c(-c3ccccc3)cccc2-c2ccccc2)c(C(C)C)c1 [Example 48, sulfamic acid[[2,4,6-tris(1-methylethyl)phenyl]acetyl]-2,6-bis(phenyl)phenyl ester] | -73% | – |
